Data as given in patent US20220031708A1, “METHOD FOR TREATING IDIOPATHIC PULMONARY FIBROSIS” (NuMedii, Inc., priority 2019, published 2022).
Where two headings read alike, the source gives them in different places.

How the values were obtained:
[1] = tested on: lung fibroblasts isolated from human IPF donor lungs; assay: Fibroblast-to-myofibroblast transition (FMT), aSMA induction by TGFb, IPF donor fibroblasts; type: cell-based; settings: 1.25 ng/mL TGFb; for IC50: Homo sapiens, Fibroblast, 72 h, read-out: LogM IC50 aSMA (converted); for LogM IC50 aSMA: 72 hours
Description: (§1) Primary fibroblasts cultured from the lungs of patients with IPF (n=3) or healthy donors (n=3) were exposed to Chk1 inhibitors or control compounds to determine the effect of Chk1 inhibitors on fibroblast differentiation into myofibroblasts (i.e., fibroblast-to-myofibroblast transition [FMT]). […] Chk1 inhibitors were dosed in an 8-point concentration curve 1 hr prior to TGFb treatment. Alpha-SMA and DAPI staining were assessed after 72 hours using high content analysis. The ability of the Chk1 inhibitors to block fibroblast-to-myofibroblast differentiation was determined by quantifying percent inhibition (PIN) of aSMA induction. Cell viability was also measured to determine whether the compounds were cytotoxic.

[2] = tested on: Primary fibroblasts cultured from the lungs of healthy donors; assay: Fibroblast-to-myofibroblast transition (FMT), aSMA induction by TGFb, healthy donor fibroblasts; type: cell-based, human; settings: 1.25 ng/mL TGFb; for IC50: Homo sapiens, Fibroblast, 72 h, read-out: LogM IC50 aSMA (converted); for LogM IC50 aSMA: 72 hours
Description: as §1

[3] = tested on: Human lung fibroblasts from three donors; assay: FMT assay, Chk1 inhibitor combined with nintedanib or pirfenidone; type: cell-based; settings: nintedanib concentration curve, Chk1 inhibitor at pre-determined IC20; FIG. 7
Description: Human lung fibroblasts from three donors were seeded in 96-well plates and treated with 1.25 ng/mL TGFb to induce differentiation to a myofibroblast phenotype (characterized by the induction of alpha smooth muscle actin—aSMA). A Chk1 inhibitor PF-477736, or standard-of-care compounds in IPF (nintedanib or pirfenidone) were dosed as indicated in an 8-point concentration curve 1 hr prior to TGFb treatment. Alpha-SMA and DAPI staining were assessed after 72 hours using high content analysis for percent inhibition of aSMA induction and % viable cells. CRC=concentration response curve. The first noted compound was dosed in an 8-point concentration curve, while the second noted compound was dosed at the pre-determined IC20 in this assay.
For each condition, percent inhibition (PIN) of aSMA induction was calculated (circles, and left y-axis), and the percent of viable cells was calculated (triangles, right y-axis).

[4] = tested on: mouse model of pulmonary fibrosis; assay: Bleomycin mouse model of pulmonary fibrosis: histopathology and collagen deposition; type: in vivo, C57BL6 mice; settings: for Collagen deposition (% pixel count) / Fiber Alignment / Fiber Count / Fiber Density: relative vs vehicle; for disease burden by collagen deposition, fiber count, fiber density and fiber alignment (Sirius red): FIG. 4A, FIG. 4B, Table 8; for histopathology scores (Ashcroft, Masson's Trichrome): PF-477736 10 or 20 mg/kg i.p., nintedanib 100 mg/kg orally, FIG. 3A
Description: To induce fibrosis, 6-8 week old C57BL6 mice were dosed with 3 mg/kg bleomycin hydrochloride in a volume of 50 μL per animal via intratracheal (i.t.) administration with a microsprayer. One week following administration of bleomycin, mice were treated with compound or vehicle once daily from day 7 to day 20. PF-477736 was administered at a dose of either 10 mg/kg (“med”) or 20 mg/kg (“high”) i.p. in a vehicle of […] sodium acetate buffer and 4% dextrose, pH 4. Nintedanib was administered orally at 100 mg/kg in a vehicle of 1% methylcellulose. n=10 mice per group.
At the end of the study, lungs were processed using standard histological methods for Masson's Trichrome staining and were assigned Ashcroft scores by a blinded pathologist.
Whole lung imaging was performed using a modified deep learning algorithm to calculate an average histogram (FIG. 3B) and empirical cumulative density function (ECDF, FIG. 3C) for each arm. The X axes represent severity of pathology, and the Y axes represent frequency (histograms) or cumulative frequency (ECDF).
Histological sections were also stained using Sirius red and assessed for collagen deposition (%), collagen fiber count, collagen fiber density, and collagen fiber alignment in a protocol modified from Bredfeldt et al. 2014, “Computational segmentation of collagen fibers from second-harmonic generation images of breast cancer.” Journal of biomedical optics 19.1.

[5] = tested on: macrophages exposed to LPS and IFNg; assay: Luminex-based assay of cytokines and MMPs in macrophage supernatants; type: cell-based, human; settings: FIG. 2C
Description: (§2) Human monocytes were isolated from the peripheral blood of IPF patients, exposed to various doses of PF-477736 for 1 hour, and then differentiated into M1 macrophages by exposure to LPS/IFNg, or into M2 macrophages by exposure to IL-4, for 3 days. The cells were analyzed by flow cytometry for CD80 cell surface expression as marker of M1 differentiation, and for CD163 cell surface expression as marker of M2 differentiation. In addition, cell supernatants were tested in a Luminex-based assay for various cytokines and matrix metalloproteinases (MMPs).

[6] = tested on: M2 macrophages differentiated from human monocytes; assay: M2 macrophage activation, CD163 flow cytometry after IL-4; type: cell-based; settings: dosed 1 hour before IL-4, 3 days; FIG. 2B
Description: as §2

[7] = tested on: M1 macrophages differentiated from human monocytes; assay: M1 macrophage activation, CD80 flow cytometry after LPS/IFNg; type: cell-based; settings: dosed 1 hour before LPS/IFNg, 3 days; FIG. 2A
Description: as §2

[8] = donor FB0303*, Healthy (aberrant response to nintedanib)
[9] = 100 mg/kg orally once daily day 7 to day 20
[10] = 20 mg/kg i.p. once daily day 7 to day 20
[11] = Multi-dose: mice from both the 10 mg/kg and the 20 mg/kg groups

NC(=O)Nc1cc(-c2cccc(F)c2)sc1C(=O)N[C@H]1CCCNC1 [AZD-7762]
IC50 ([1]; donor IPF06, IPF): 794 nM | IC50 ([1]; donor IPF07, IPF): 794 nM | IC50 ([1]; donor IPF08, IPF): 501 nM | IC50 ([2]; donor FB0054, Healthy): 1260 nM | IC50 ([2]; donor FB2382, Healthy): 631 nM

COc1cc2nc(-c3cc(F)ccc3O)nc(N[C@@H]3CNC[C@H]3C(C)(C)O)c2cc1OC [CCT-241533]
IC50 ([1]; donor IPF06, IPF): 631 nM | IC50 ([1]; donor IPF07, IPF): 158 nM | IC50 ([1]; donor IPF08, IPF): 316 nM | IC50 ([2]; donor FB0054, Healthy): 398 nM | IC50 ([2]; donor FB2382, Healthy): 501 nM

N#Cc1cnc(Nc2cc(NC[C@H]3CNCCO3)c(C(F)(F)F)cn2)cn1 [CCT-245737]
IC50 ([1]; donor IPF06, IPF): 3160 nM | IC50 ([1]; donor IPF07, IPF): 3160 nM | IC50 ([1]; donor IPF08, IPF): 3160 nM | IC50 ([2]; donor FB0054, Healthy): 3160 nM | IC50 [2, 8]: 2510 nM | IC50 ([2]; donor FB2382, Healthy): 3160 nM

N[C@@H]1CCCN(c2c(Br)cnc3[nH]cc(NC(=O)C4CC4)c23)C1 [GDC-0575]
LogM IC50 aSMA ([1]; donor IPF06, IPF): −5.7 LogM | LogM IC50 aSMA ([1]; donor IPF07, IPF): −5.7 LogM | LogM IC50 aSMA ([1]; donor IPF08, IPF): −5.8 LogM | LogM IC50 aSMA ([2]; donor FB0054, Healthy): −5.9 LogM | LogM IC50 aSMA [2, 8]: −5.8 LogM | LogM IC50 aSMA ([2]; donor FB2382, Healthy): −5.9 LogM

Cn1cc(-c2cnn3c(N)c(Br)c([C@@H]4CCCNC4)nc23)cn1 [MK-8776]
IC50 ([1]; donor IPF06, IPF): 2000 nM | IC50 ([1]; donor IPF07, IPF): 2000 nM | IC50 ([1]; donor IPF08, IPF): 1580 nM | IC50 [2, 8]: 398 nM | IC50 ([2]; donor FB2382, Healthy): 3160 nM

COC(=O)c1ccc2c(c1)NC(=O)/C2=C(\Nc1ccc(N(C)C(=O)CN2CCN(C)CC2)cc1)c1ccccc1 [Nintedanib]
concentration of nintedanib required for 50% inhibition of fibroblast to myofibroblast differentiation [3]: lower when co-administered with a Chk1 inhibitor | Collagen deposition (% pixel count) [4, 9]: +0.31 % pixel count | Fiber Alignment [4, 9]: −0.03 | Fiber Count [4, 9]: +20 | Fiber Density [4, 9]: +0.40 | disease burden by collagen deposition, fiber count, fiber density and fiber alignment (Sirius red) [4]: did not | histopathology scores (Ashcroft, Masson's Trichrome) [4]: improved histopathology scores

COc1cccc(OCCCN)c1-c1cc(Nc2cnc(C#N)cn2)n[nH]1 [prexasertib]
IC50 ([1]; donor IPF06, IPF): 1000 nM | IC50 ([1]; donor IPF07, IPF): 1000 nM | IC50 ([1]; donor IPF08, IPF): 631 nM | IC50 ([2]; donor FB0054, Healthy): 631 nM | IC50 ([2]; donor FB2382, Healthy): 794 nM

PF-477736
levels of representative cytokines and matrix metalloproteinases in supernatants [5]: lower levels of representative cytokines and matrix metalloproteinases | M2 macrophage activation (CD163 cell surface expression) [6]: inhibits M2 macrophage activation in a dose-dependent manner | M1 macrophage activation (CD80 cell surface expression) [7]: inhibits M1 macrophage activation in a dose-dependent manner | Collagen deposition (% pixel count) ([4]; 10 mg/kg i.p. once daily day 7 to day 20): −1.27 % pixel count | Collagen deposition (% pixel count) [4, 10]: −1.64 % pixel count | Fiber Alignment [4, 10]: 0.08 | Fiber Count [4, 10]: −66.3 | Fiber Density [4, 10]: −0.66 | disease burden by collagen deposition, fiber count, fiber density and fiber alignment (Sirius red) [4]: reduced disease burden by all of these parameters in a dose-dependent manner | Collagen deposition (% pixel count) [4, 11]: −1.63 % pixel count | Fiber Alignment [4, 11]: 0.08 | Fiber Count [4, 11]: −67.7 | Fiber Density [4, 11]: −0.69 | histopathology scores (Ashcroft, Masson's Trichrome) [4]: improved histopathology scores | pathology severity, whole lung imaging (histogram, ECDF) ([4]; deep learning algorithm, FIG. 3B, 3C): greater reduction in pathology severity compared to nintedanib
